Measurements: patent US20050118310A1, “Formulations of compounds derived from natural sources and their use with irradiation for food preservation” (priority 2001, published 2005)
Marks after values point to notes of the source that are not given here.

Columns and labels:
E. coli [1] = experiment: Irradiation sensitivity (D10) of E. coli in ground beef; type: cell-based, Escherichia coli (ATCC 25922)
S. typhi [2] = experiment: Irradiation sensitivity (D10) of S. typhi in ground beef; type: cell-based, Salmonella typhi (ATCC 19430)
S. typhi [3] = experiment: MIC (D10 %) of active compounds in ground beef, S. typhi; type: cell-based, Salmonella typhi (ATCC 19430); settings: non-irradiated ground beef, 10^5 CFU/g, stored at 4° C. for 24 hours; % w/w or v/w
Description: (§1) Escherichia coli (ATCC 25922) and Salmonella typhi (ATCC 19430) were obtained from the American Type Culture Collection (Rockville, Md., USA) and maintained at −80° C. in Tryptic Soy Broth (TSB; Difco Laboratory, Detroit, Mich.) containing glycerol (10%; v/v). Before each experiment, stock cultures were subcultured through two consecutive 24 h growth cycles in TSB at 35° C. to obtain working cultures containing approximately 10^9 UCF/ml for E. coli and S. typhi.
(§2) Samples were homogenised for 2 min in sterile peptone water (0.1%) using a Lab-blender 400 stomacher (Laboratory Equipment, London, UK). From this mixture, serial dilutions were prepared and appropriate ones were pour-plated in tryptic soy agar (TSA) (Difco, Laboratories, Detroit, Mich., USA) and incubated at 35° C., 24 hours for the numeration of E. coli and S. typhi.
(§3) D10 deteriiination: The kinetics of bacteria destruction by irradiation with or without the active compounds and under different packaging conditions was evaluated by linear regression. Bacterial counts (log CFU/ml) were plotted against irradiation doses or compound concentrations and the D10 values were calculated using SigmaPlot program. Statistical analysis was done using SPSS program. The Duncan test was used with a probability of 0.05.
(§4) The MIC values for the active compounds were determined on the basis of their antibacterial effectiveness in meat. Concentrations retained were those to reduce by 1 log CFU the population of E. coli or S. typhi in ground beef. Ground beef samples weighing 200 g were contaminated with working cultures of E. coli or S. typhi to obtain a final concentration of 10^5 CFU/g. The ground beef samples containing micro-organisms was mixed during 3 minutes at medium speed in a 4L-conmmercial blender (Waring Products, New Hartford, Col., USA) and different concentrations of the active compounds were incorporated, followed by another 3 minutes period mixing. Sterile petri plates (60×15 mm) were filled with ground beef samples containing micro-organisms and different concentrations of active compounds in portion of 25 g each and stored at 4° C. for 24 hours.
(§5) In addition to the above compounds, minimal concentrations of different types of commercial Herbalox® and Duralox® required to reduce by 1 log the bacterial population of E. coli in ground beef were evaluated. […] However, an estimation of the minimal concentration was calculated using the slope of the curve.

E. coli [4] = experiment: MIC (D10 %) of active compounds in ground beef, E. coli; type: cell-based, Escherichia coli (ATCC 25922); settings: non-irradiated ground beef, 10^5 CFU/g, stored at 4° C. for 24 hours; % w/w or v/w
Description: as §1, §2, §3, §4, §5

S. typhi [5] = experiment: Irradiation sensitivity of S. typhi in chicken breast; type: cell-based, Salmonella typhi (ATCC 19430)
E. coli [6] = experiment: Irradiation sensitivity of E. coli in chicken breast; type: cell-based, Escherichia coli (ATCC 25922); settings: trans-cinnamaldehyde 0.050%, thymol 0.038%, tetrasodium pyrophosphate 0.003%, carvacrol 0.029%
[7] = system: Six pathogenic and spoilage bacteria, commonly found in meat and meat products; experiment: MIC in artificial culture media (1 log reduction); type: cell-based
Description: The concentration ot each active compound added to the meat samples was based on results obtained in a previous experiment. These concentrations represent the minimum inhibitory concentrations (MIC) of the active compounds required to be present in artificial culture media in order to reduce by 1 log the number of bacteria in culture. Six pathogenic and spoilage bacteria, commonly found in meat and meat products, were tested. […] The concentration used for carnosine (1.0%) was selected from the literature (Sebranek, 1999). The concentrations of BHA (0.01%), BHT (0.01%), EDTA (100 ppm), and tetrasodium pyrophosphate (0.1%) corresponded to the concentrations recommended by the Canadian Food Inspection Agency (CFIA).
This value was detennined by testing six pathogenic and spoilage bacteria, commonly found in meat and meat products.

[8] = ground beef, air, 4° C., lower concentration: thymol 0.1%, tannic acid 0.38%, rosemary 0.5%, BHT 0.01%, trans-cinnamaldehyde […], carvacrol […], thyme 0.2%, BHA 0.01%, nisin 625 UI/g, EDTA 100 ppm, tetrasodium pyrophosphate 0.1%, carnosine 1.0%, ascorbic acid 0.5%
[9] = vs control, negative = protective effect, ground beef, air, 4° C., thymol 0.1%, tannic acid 0.38%, rosemary 0.5%, BHT 0.01%, trans-cinnamaldehyde […], carvacrol […], thyme 0.2%, BHA 0.01%, nisin 625 UI/g, EDTA 100 ppm, tetrasodium pyrophosphate 0.1%, carnosine 1.0%, ascorbic acid 0.5%
[10] = ground beef, air, 4° C., lower concentration: tannic acid 0.38%, nisin 625 UI/g, EDTA 100 ppm, carvacrol […], tetrasodium pyrophosphate 0.1%, trans-cinnamaldehyde […], thymol 0.1%, thyme 0.2%, BHT 0.01%, BHA 0.01%, rosemary 0.5%, carnosine 1.0%, ascorbic acid 0.5%
[11] = vs control, ground beef, air, 4° C., tannic acid 0.38%, nisin 625 UI/g, EDTA 100 ppm, carvacrol […], tetrasodium pyrophosphate 0.1%, trans-cinnamaldehyde […], thymol 0.1%, thyme 0.2%, BHT 0.01%, BHA 0.01%, rosemary 0.5%, carnosine 1.0%, ascorbic acid 0.5%

Compound	D10 (%): minimal concentration of active compound required to reduce S. typhi population by 1 log in ground beef (S. typhi [3])	D10 (%): minimal concentration of active compound required to reduce E. coli population by 1 log in ground beef (E. coli [4])	D10(kGy) (E. coli [1]; [8])	Increase in Sensitivity (E. coli [1]; [9]) [%]	D10(kGy) (S. typhi [2]; [10])	Increase in Sensitivity (S. typhi [2]; [11]) [%]	further results
O=C(O)CN(CCN(CC(=O)O)CC(=O)O)CC(=O)O [EDTA]	–	–	–	–	–	–	D10(kGy) (E. coli [1]): 0.127 ± 0.0033^gh kGy; Increase in Sensitivity (E. coli [1]): −0.8%; D10(kGy) (S. typhi [2]): 0.419 ± 0.0198^hi kGy; Increase in Sensitivity (S. typhi [2]): 20.3%
O=C(OC[C@H]1O[C@@H](OC(=O)c2cc(O)c(O)c(OC(=O)c3cc(O)c(O)c(O)c3)c2)[C@H](OC(=O)c2cc(O)c(O)c(OC(=O)c3cc(O)c(O)c(O)c3)c2)[C@@H](OC(=O)c2cc(O)c(O)c(OC(=O)c3cc(O)c(O)c(O)c3)c2)[C@@H]1OC(=O)c1cc(O)c(O)c(OC(=O)c2cc(O)c(O)c(O)c2)c1)c1cc(O)c(O)c(OC(=O)c2cc(O)c(O)c(O)c2)c1 [Tannic acid, tannic acid]	21.18 ± 2.07^d %	11.15 ± 2.04^c %	–	–	–	–	–
O=P([O-])([O-])OP(=O)([O-])[O-].[Na+].[Na+].[Na+].[Na+] [Tetrasodium pyrophosphate, tetrasodium pyrophosphate]	–	–	–	–	–	–	D10(kGy) (S. typhi [5]; chicken breast, 4° C., trans-cinnamaldehyde 0.030%, tetrasodium pyrophosphate 0.003%, carvacrol 0.038%, thymol […]): 0.520 ± 0.030^b kGy; factor by which the effect was reduced in the chicken breast (S. typhi [5]; concentration of 1/30 of the MIC value in ground beef, compared with ground beef at MIC): 1.5; irradiation dose necessary to completely eliminate S. typhi from the chicken breast (S. typhi [5]; trans-cinnamaldehyde 0.030%, tetrasodium pyrophosphate 0.003%, carvacrol 0.038%, thymol […]): 2.6 kGy; Increase in Sensitivity (S. typhi [5]; vs control, chicken breast, trans-cinnamaldehyde 0.030%, tetrasodium pyrophosphate 0.003%, carvacrol 0.038%, thymol […]): 19.1%; D10(kGy) (E. coli [6]; chicken breast, 4° C.): 0.141 ± 0.012^bc kGy; irradiation dose necessary to completely eliminate E. coli from the chicken breast (E. coli [6]): 0.75 kGy; Increase in Sensitivity (E. coli [6]; vs control, chicken breast): 2.7%
nisin	–	–	0.120 ± 0.0089^efg kGy	4.8	0.420 ± 0.0040^hi kGy	20.2	–
O=C1O[C@H]([C@@H](O)CO)C(O)=C1O [Ascorbic acid]	1.83 ± 0.06^ab %	2.71 ± 0.26^b %	–	–	–	–	Mean values of MIC (concentration required in artificial culture media to reduce by 1 log the number of bacteria) [7]: 0.5%
COc1ccc(O)c(C(C)(C)C)c1 [BHA, butylated hydroxyanisole]	–	–	0.117 ± 0.0026^ef kGy	7.1	0.407 ± 0.0123^h kGy	22.6	–
